Data taken from patent publication US11414424B2, “Cardiac sarcomere inhibitors” (Cytokinetics, Inc., priority 2018, dated 2022).

Test system: bovine cardiac myofibrils
Assay: Myofibril assay: PK/LDH-coupled steady-state ATPase activity of skinned bovine cardiac myofibrils
Assay type: biochemical
Details: Ca2+ activating to 75% of maximal rate
In short: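 Steady-state ATPase of detergent-skinned bovine left-ventricular myofibrils (1 mg/mL), PK/LDH-coupled NADH read at 340 nm, in PIPES/MgCl2 buffer pH 6.8 with 50 μM ATP, 0.6 mM EGTA and CaCl2 set for 50% or 75% activation. Inhibition of activity measured.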

O=C1CN(c2ccc(Cl)cc2F)C(=O)CN1Cc1ccc(C(F)(F)F)cc1 [Compound 277, 1-(4-chloro-2-fluorophenyl)-4-(4-(trifluoromethyl)-benzyl)piperazine-2,5-dione] was tested, and the “CDMF75 IC15” value was 32.7 µM.

With CC1(C)C(=O)N(c2ccc(C#N)cc2F)CC(=O)N1Cc1ccc(C(F)(F)F)cc1 [Compound 279, 4-(3,3-dimethyl-2,5-dioxo-4-(4-(trifluoromethyl)-benzyl)piperazin-1-yl)-3-fluorobenzonitrile] the “CDMF75 IC15” value was 1.2 µM.

For N#Cc1ccc(N2CC(=O)N(Cc3ccc(C(F)(F)F)cc3)C3(COC3)C2=O)c(F)c1 [Compound 280, 4-(6,9-dioxo-5-(4-(trifluoromethyl)benzyl)-2-oxa-5,8-diazaspiro[3.5]-nonan-8-yl)-3-fluorobenzonitrile], the “CDMF75 IC15” value was 0.9 µM.

With O=C1C(C2COC2)N(Cc2ccc(C(F)(F)F)cc2)C(=O)CN1c1ccc(Cl)cc1F (centres unmarked) [Compound 281, 1-(4-chloro-2-fluorophenyl)-3-(oxetan-3-yl)-4-(4-(trifluoromethyl)benzyl)-piperazine-2,5-dione] the “CDMF75 IC15” value was 4.3 µM.

For N#Cc1ccc(N2CC(=O)N(Cc3ccc(C(F)(F)F)cc3)C(C3COC3)C2=O)c(F)c1 (centres unmarked) [Compound 282, 3-fluoro-4-(3-(oxetan-3-yl)-2,5-dioxo-4-(4-(trifluoromethyl)benzyl)-piperazin-1-yl)benzonitrile], the “CDMF75 IC15” value was 3.8 µM.

For CC(C)[C@H]1C(=O)N(c2ccc(C#N)cc2F)CC(=O)N1Cc1ccc(C(F)(F)F)cc1 [Compound 283, (S)-3-fluoro-4-(3-isopropyl-2,5-dioxo-4-(4-(trifluoromethyl)benzyl)-piperazin-1-yl)benzonitrile], the “CDMF75 IC15” value was 0.6 µM.

N#Cc1ccc(N2CC(=O)N(Cc3ccc(C(F)(F)F)cc3)[C@@H](C3CCC3)C2=O)c(F)c1 [Compound 284, (S)-4-(3-cyclobutyl-2,5-dioxo-4-(4-(trifluoromethyl)benzyl)piperazin-1-yl)-3-fluorobenzonitrile] was tested, and the “CDMF75 IC15” value was 0.5 µM.

CC(C)(C)OC[C@H]1C(=O)N(c2ccc(C#N)cc2F)CC(=O)N1Cc1ccc(C(F)(F)F)cc1 [Compound 285, (S)-4-(3-(tert-butoxymethyl)-2,5-dioxo-4-(4-(trifluoro-methyl)benzyl)piperazin-1-yl)-3-fluorobenzonitrile] was tested, and the “CDMF75 IC15” value was 8.3 µM.

In the case of N#Cc1ccc(N2CC(=O)N(Cc3ccc(C(F)(F)F)cc3)C3(CCOC3)C2=O)c(F)c1 (centres unmarked) [Compound 286, 4-(7,10-dioxo-6-(4-(trifluoromethyl)benzyl)-2-oxa-6,9-diazaspiro[4.5]decan-9-yl)-3-fluorobenzonitrile], the “CDMF75 IC15” value is reported as 0.7 µM.

With N#Cc1ccc(N2CC(=O)N(Cc3ccc(C(F)(F)F)cc3)[C@@H](CO)C2=O)c(F)c1 [Compound 287, (S)-3-fluoro-4-(3-(hydroxymethyl)-2,5-dioxo-4-(4-(trifluoromethyl)-benzyl)piperazin-1-yl)-benzonitrile] the “CDMF75 IC15” value was 3.2 µM.

In the case of CC(C)N1CC(=O)N(Cc2ccc(Cl)cn2)C(c2ccc(Cl)cc2)C1=O (centres unmarked) [Compound 293, 3-(4-chlorophenyl)-4-((5-chloropyridin-2-yl)methyl)-1-isopropylpiperazine-2,5-dione], the “CDMF75 IC15” value is reported as 36.0 µM.

CC(C)N1CC(=O)N(Cc2ccccc2)C(c2ccc(Cl)cc2)C1=O (centres unmarked) [Compound 294, 4-benzyl-3-(4-chlorophenyl)-1-isopropylpiperazine-2,5-dione] was tested, and the “CDMF75 IC15” value was 33.3 µM.

CC(C)N1CC(=O)N(Cc2ccc(Cl)cc2)C(c2ccc(Cl)cn2)C1=O (centres unmarked) [Compound 297, 4-(4-chlorobenzyl)-3-(5-chloropyridin-2-yl)-1-isopropylpiperazine-2,5-dione] was tested, and the “CDMF75 IC15” value was 11.6 µM.

CC(C)N1CC(=O)N(Cc2cccc(Cl)c2)C(c2ccc(Cl)cc2)C1=O (centres unmarked) [Compound 298, 4-(3-chlorobenzyl)-3-(4-chlorophenyl)-1-isopropylpiperazine-2,5-dione] was tested, and the “CDMF75 IC15” value was 5.4 µM.

CC(C)N1CC(=O)N(Cc2cccc(F)c2)C(c2ccc(Cl)cc2)C1=O (centres unmarked) [Compound 299, 3-(4-chlorophenyl)-4-(3-fluorobenzyl)-1-isopropylpiperazine-2,5-dione] was tested, and the “CDMF75 IC15” value was 7.0 µM.

For Cc1ccccc1CN1C(=O)CN(C(C)C)C(=O)C1c1ccc(Cl)cc1 (centres unmarked) [Compound 300, 3-(4-chlorophenyl)-1-isopropyl-4-(2-methylbenzyl)piperazine-2,5-dione], the “CDMF75 IC15” value was 28.3 µM.

In the case of CC(C)N1CC(=O)N(Cc2ccccc2C#N)C(c2ccc(Cl)cc2)C1=O (centres unmarked) [Compound 301, 2-((2-(4-chlorophenyl)-4-isopropyl-3,6-dioxo-piperazin-1-yl)methyl)-benzonitrile], the “CDMF75 IC15” value is reported as 18.6 µM.

With CC(C)N1CC(=O)N(Cc2ccccc2Cl)C(c2ccc(Cl)cc2)C1=O (centres unmarked) [Compound 302, 4-(2-chlorobenzyl)-3-(4-chlorophenyl)-1-isopropylpiperazine-2,5-dione] the “CDMF75 IC15” value was 15.2 µM.

In the case of CC(C)N1CC(=O)N(Cc2ccc(F)cc2)C(c2ccc(Cl)cc2)C1=O (centres unmarked) [Compound 303, 3-(4-chlorophenyl)-4-(4-fluorobenzyl)-1-isopropylpiperazine-2,5-dione], the “CDMF75 IC15” value is reported as 3.7 µM.

For Cc1cccc(CN2C(=O)CN(C(C)C)C(=O)C2c2ccc(Cl)cc2)c1 (centres unmarked) [Compound 304, 3-(4-chlorophenyl)-1-isopropyl-4-(3-methyl-benzyl)piperazine-2,5-dione], the “CDMF75 IC15” value was 16.4 µM.

Cc1ccc(CN2C(=O)CN(C(C)C)C(=O)C2c2ccc(Cl)cc2)cc1 (centres unmarked) [Compound 305, 3-(4-chlorophenyl)-1-isopropyl-4-(4-methylbenzyl)piperazine-2,5-dione] was tested, and the “CDMF75 IC15” value was 6.0 µM.

CC(C)N1CC(=O)N(Cc2cccc(C#N)c2)C(c2ccc(Cl)cc2)C1=O (centres unmarked) [Compound 306, 3-((2-(4-chlorophenyl)-4-isopropyl-3,6-dioxo-piperazin-1-yl)methyl)-benzonitrile] was tested, and the “CDMF75 IC15” value was 27.0 µM.

With CC(C)N1CC(=O)N(Cc2ccc(C#N)cc2)C(c2ccc(Cl)cc2)C1=O (centres unmarked) [Compound 307, 4-((2-(4-chlorophenyl)-4-isopropyl-3,6-dioxo-piperazin-1-yl)methyl)-benzonitrile] the “CDMF75 IC15” value was 36.7 µM.

For CC(C)N1CC(=O)N(Cc2cccc(C(F)(F)F)c2)C(c2ccc(Cl)cc2)C1=O (centres unmarked) [Compound 308, 3-(4-chlorophenyl)-1-isopropyl-4-(3-(trifluoro-methyl)benzyl)piperazine-2,5-dione], the “CDMF75 IC15” value was 22.7 µM.

For CC(C)N1CC(=O)N(Cc2ccc(C(F)(F)F)cc2)C(c2ccc(Cl)cc2)C1=O (centres unmarked) [Compound 309, 3-(4-chlorophenyl)-1-isopropyl-4-(4-(trifluoro-methyl)benzyl)piperazine-2,5-dione], the “CDMF75 IC15” value was 2.8 µM.

In the case of CC(C)N1CC(=O)N(Cc2ccc(Cl)cc2)C(c2ccccc2Cl)C1=O (centres unmarked) [Compound 310, 4-(4-chlorobenzyl)-3-(2-chlorophenyl)-1-isopropylpiperazine-2,5-dione], the “CDMF75 IC15” value is reported as 13.1 µM.

With CC(C)N1CC(=O)N(Cc2ccc(Cl)cc2)C(c2ccc(F)cc2)C1=O (centres unmarked) [Compound 311, 4-(4-chlorobenzyl)-3-(4-fluorophenyl)-1-isopropylpiperazine-2,5-dione] the “CDMF75 IC15” value was 5.9 µM.

In the case of CC(C)N1CC(=O)N(Cc2ccc(Cl)cc2)C(c2cccc(Cl)c2)C1=O (centres unmarked) [Compound 312, 4-(4-chlorobenzyl)-3-(3-chlorophenyl)-1-isopropylpiperazine-2,5-dione], the “CDMF75 IC15” value is reported as 4.9 µM.

For COc1ccc(C2C(=O)N(C(C)C)CC(=O)N2Cc2ccc(Cl)cc2)cc1 (centres unmarked) [Compound 313, 4-(4-chlorobenzyl)-1-isopropyl-3-(4-methoxy-phenyl)piperazine-2,5-dione], the “CDMF75 IC15” value was 3.9 µM.

With CC(C)N1CC(=O)N(Cc2ccc(Cl)cc2)C(c2ccc(C(F)(F)F)cc2)C1=O (centres unmarked) [Compound 314, 4-(4-chlorobenzyl)-1-isopropyl-3-(4-(trifluoro-methyl)phenyl)piperazine-2,5-dione] the “CDMF75 IC15” value was 8.4 µM.

For CC(C)N1CC(=O)N(Cc2ccc(C(F)(F)F)cn2)C(c2ccc(Cl)cc2)C1=O (centres unmarked) [Compound 315, 3-(4-chlorophenyl)-1-isopropyl-4-((5-(trifluoromethyl)pyridin-2-yl)methyl)piperazine-2,5-dione], the “CDMF75 IC15” value was 28.9 µM.

For CC(C)N1CC(=O)N(Cc2ccc(Cl)cc2)C(C)(c2ccc(Cl)cc2)C1=O (centres unmarked) [Compound 316, 4-(4-chlorobenzyl)-3-(4-chlorophenyl)-1-isopropyl-3-methylpiperazine-2,5-dione], the “CDMF75 IC15” value was 14.3 µM.

For CC(C)N1CC(=O)N(Cc2ccc(Cl)cc2)C2(Cc3ccccc3C2)C1=O [Compound 317, 1′-(4-chlorobenzyl)-4′-isopropyl-1,3-dihydrospiro[indene-2,2′-piperazine]-3′,6′-dione], the “CDMF75 IC15” value was 2.3 µM.

For CC(C)N1CC(=O)N(Cc2ccc(Cl)cc2)C2(CC(c3ccccc3)C2)C1=O (centres unmarked) [Compound 318, 5-(4-chlorobenzyl)-8-isopropyl-2-phenyl-5,8-diazaspiro[3.5]nonane-6,9-dione], the “CDMF75 IC15” value was 7.3 µM.

With CC(C)N1CC(=O)N(Cc2ccc(C(F)(F)F)cc2)C2(CCc3ccccc32)C1=O (centres unmarked) [Compound 319, 4′-isopropyl-1′-(4-(trifluoromethyl)benzyl)-2,3-dihydrospiro[indene-1,2′-piperazine]-3′,6′-dione] the “CDMF75 IC15” value was 24.0 µM.

With CNC(=O)N1CC2(C1)C(=O)N(C(C)CC#N)CC(=O)N2Cc1ccc(C(F)(F)F)cc1 (centres unmarked) [Compound 320, 8-(1-cyanopropan-2-yl)-N-methyl-6,9-dioxo-5-(4-(trifluoromethyl)benzyl)-2,5,8-triazaspiro[3.5]nonane-2-carboxamide] the “CDMF75 IC15” value was 17.8 µM.

For CNC(=O)N1CC2(C1)C(=O)N([C@H]1CC[C@@H](C#N)C1)CC(=O)N2Cc1ccc(C(F)(F)F)cc1 [Compound 321, 8-((1S,3R)-3-cyano-cyclopentyl)-N-methyl-6,9-dioxo-5-(4-(trifluoromethyl)benzyl)-2,5,8-triazaspiro[3.5]-nonane-2-carboxamide], the “CDMF75 IC15” value was 22.1 µM.

CC(=O)N1CC2(C1)C(=O)N([C@H]1CC[C@H](C)CC1)CC(=O)N2Cc1ccc(C(F)(F)F)cc1 [Compound 322, 2-acetyl-8-((1r,4r)-4-methylcyclohexyl)-5-(4-(trifluoromethyl)benzyl)-2,5,8-triazaspiro[3.5]-nonane-6,9-dione] was tested, and the “CDMF75 IC15” value was 10.8 µM.
